Laboratory results reported in patent US7314614B1, “Recombinant sendai virus vector for introducing exogenous genes to airway epithelia” (priority 1999, dated 2008).

Target: T1, CFTR (Homo sapiens, UniProt P13569)
T1 construct: expressed in transfected cells; host or cells: COS7 cells infected with the recombinant Sendai virus SeV/CFTR (CFTR cDNA in the NotI site of pSeV18+b(+))
Assay: Whole-cell patch clamp of COS7 cells infected with CFTR-expressing Sendai virus
Type: cell-based
Settings: COS7 cells expressing sample-1 SeV/CFTR
Description: COS7 cells were infected with the prepared CFTR-expressing Sendai virus (sample-1 SeV/CFTR), and the obtained infected cells were analyzed by the whole-cell patch clamp technique. […] A glass pipette containing a pipette solution was contacted with a cell within a bath solution, and negative pressure was applied to remove the cell membranes. In this occasion, the pipette solution contains 145 mM NMDG^+, 148.4 mM Cl^−, […], 5 mM ATP, 10 mM glucose, 0.1 mM EGTA, and 10 mM HEPES (titrated by Tris, pH 7.4), and the bath solution contains 141 mM Na^+, 152.4 mM Cl^−, […], 5 mM K^+, 1.7 mM Mg^2+, 2 mM Ca^2+, 10 mM glucose, 0.1 mM EGTA, and 10 mM HEPES (titrated by Tris, pH 7.4). The effects of forskolin on the membrane current in COS7 cells expressing sample-1 SeV/CFTR were examined by whole-cell recording (FIG. 14). […] The influx current was reproduced by adding forskolin again after a single wash, and was again suppressed by glibenclamide, which confirmed that the observed change in current was a specific drug-induced response.

T1 sequence (P13569 whole entry): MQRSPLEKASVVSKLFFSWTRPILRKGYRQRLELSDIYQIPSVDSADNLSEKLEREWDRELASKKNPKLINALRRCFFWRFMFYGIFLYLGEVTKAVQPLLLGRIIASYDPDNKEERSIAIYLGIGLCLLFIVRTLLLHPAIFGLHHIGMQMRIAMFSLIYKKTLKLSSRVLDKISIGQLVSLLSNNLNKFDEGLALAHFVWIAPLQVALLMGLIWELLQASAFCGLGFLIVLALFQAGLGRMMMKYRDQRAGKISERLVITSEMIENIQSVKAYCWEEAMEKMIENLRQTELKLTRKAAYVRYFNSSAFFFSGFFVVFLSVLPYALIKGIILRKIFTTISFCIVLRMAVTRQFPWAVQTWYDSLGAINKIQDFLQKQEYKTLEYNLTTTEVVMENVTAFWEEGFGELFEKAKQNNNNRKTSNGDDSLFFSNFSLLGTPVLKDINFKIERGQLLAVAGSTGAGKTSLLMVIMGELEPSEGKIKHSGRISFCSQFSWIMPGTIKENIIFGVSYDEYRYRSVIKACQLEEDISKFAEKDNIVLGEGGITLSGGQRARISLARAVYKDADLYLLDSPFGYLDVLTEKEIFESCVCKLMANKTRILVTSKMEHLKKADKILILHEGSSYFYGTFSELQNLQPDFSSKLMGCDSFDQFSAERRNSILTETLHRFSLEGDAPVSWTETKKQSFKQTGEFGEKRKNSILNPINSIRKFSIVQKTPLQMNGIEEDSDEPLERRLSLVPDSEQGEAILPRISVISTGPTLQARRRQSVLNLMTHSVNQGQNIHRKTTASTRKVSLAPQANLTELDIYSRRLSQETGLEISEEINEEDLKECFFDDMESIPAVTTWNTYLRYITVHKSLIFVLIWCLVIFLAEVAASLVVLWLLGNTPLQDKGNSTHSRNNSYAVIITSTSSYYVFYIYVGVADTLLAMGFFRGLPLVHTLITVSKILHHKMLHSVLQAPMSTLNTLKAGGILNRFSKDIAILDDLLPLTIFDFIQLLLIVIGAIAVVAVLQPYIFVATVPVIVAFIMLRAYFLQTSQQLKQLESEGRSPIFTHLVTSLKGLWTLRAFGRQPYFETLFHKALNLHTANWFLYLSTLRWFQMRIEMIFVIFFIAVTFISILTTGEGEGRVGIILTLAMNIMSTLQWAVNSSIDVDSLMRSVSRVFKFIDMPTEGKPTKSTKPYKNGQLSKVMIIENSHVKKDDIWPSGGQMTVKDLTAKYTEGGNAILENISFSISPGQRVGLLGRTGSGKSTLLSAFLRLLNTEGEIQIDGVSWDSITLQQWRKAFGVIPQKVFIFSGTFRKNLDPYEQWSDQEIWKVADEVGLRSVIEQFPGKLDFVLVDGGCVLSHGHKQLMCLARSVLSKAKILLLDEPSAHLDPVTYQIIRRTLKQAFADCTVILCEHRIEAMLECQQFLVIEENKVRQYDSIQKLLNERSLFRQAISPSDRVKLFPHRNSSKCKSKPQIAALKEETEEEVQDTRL

## COc1ccc(Cl)cc1C(=O)NCCc1ccc(S(=O)(=O)NC(=O)NC2CCCCC2)cc1 [Glibenclamide]
300 μM
  effect on forskolin-induced Cl− currents: inhibited
whole-cell recording, reproduced after wash (FIG. 14)
  effect on forskolin-induced influx current: suppressed
